# Data: ChEMBL document CHEMBL1817546, “The synthesized novel fluorinated compound (LJJ-10) induces death receptor- and mitochondria-dependent apoptotic cell death in the human osteogenic sarcoma U-2 OS cells” (Eur J Med Chem, 2011)
# Active and inactive are the calls of the source. The calls are words filed in the database; no cut-off is given here.
# Assays:
# [1] = Induction of death receptor signaling-mediated apoptosis in human U2OS cells assessed as increase caspase-8 activity measuring release of pNA at 30 uM after 48 hrs by spectrophotometry; type: cell-based
# [2] = Induction of death receptor signaling-mediated apoptosis in human U2OS cells assessed as increase in AIF level at 30 uM after 12 to 48 hrs by Western blotting; type: cell-based
# [3] = system: U2OS; assay: Induction of apoptosis in human U2OS cells after 48 hrs by MTT assay in presence of cyclosporine A; type: functional, cell-based
# [4] = Induction of death receptor signaling-mediated apoptosis in human U2OS cells assessed as increase in Apaf-1 level at 30 uM after 12 to 48 hrs by Western blotting; type: cell-based
# [5] = Induction of death receptor signaling-mediated apoptosis in human U2OS cells assessed as increase in Fas level at 30 uM after 12 to 48 hrs by Western blotting method; type: cell-based
# [6] = system: COLO 205; assay: Cytotoxicity against human COLO205 cells after 48 hrs by MTT assay; type: functional, cell-based; conditions: COLO 205, 48 h
# [7] = Induction of death receptor signaling-mediated apoptosis in human U2OS cells assessed as increase caspase-3 activity measuring release of pNA at 30 uM after 48 hrs by spectrophotometry; type: cell-based
# [8] = system: MDA-MB-231; assay: Cytotoxicity against human MDA-MB-231 cells after 48 hrs by MTT assay; type: functional, cell-based; conditions: MDA-MB-231, 48 h
# [9] = system: U-937; assay: Cytotoxicity against human U937 cells after 48 hrs by MTT assay; type: functional, cell-based; conditions: U-937, 48 h
# [10] = Induction of death receptor signaling-mediated apoptosis in human U2OS cells assessed as increase in caspase-8 level at 30 uM after 12 to 48 hrs by Western blotting method; type: cell-based
# [11] = Induction of death receptor signaling-mediated apoptosis in human U2OS cells assessed as increase in Endo-G level at 30 uM after 12 to 48 hrs by Western blotting; type: cell-based
# [12] = Induction of death receptor signaling-mediated apoptosis in human U2OS cells assessed as decrease in Bid level at 30 uM after 12 to 48 hrs by Western blotting; type: cell-based
# [13] = Induction of death receptor signaling-mediated apoptosis in human U2OS cells assessed as increase in production of reactive oxygen species at 30 uM after 2 to 12 hrs by flow cytometry relative to control; type: cell-based; conditions: TDE = time-dependent effect
# [14] = Induction of death receptor signaling-mediated apoptosis in human U2OS cells assessed as increase in cytochrome c level at 30 uM after 12 to 48 hrs by Western blotting; type: cell-based
# [15] = Cytotoxicity against human HT29-AK cells after 48 hrs by MTT assay; type: functional, cell-based
# [16] = Induction of death receptor signaling-mediated apoptosis in human U2OS cells assessed decrease in as cell viability at 30 uM after 48 hrs by MTT assay in presence of caspase-9 inhibitor Z-LEHD-FMK; type: cell-based
# [17] = system: U2OS; assay: Induction of apoptosis in human U2OS cells after 48 hrs by MTT assay in presence of anti-FasL monoclonal antibody; type: functional, cell-based
# [18] = Induction of death receptor signaling-mediated apoptosis in human U2OS cells assessed as increase caspase-9 activity measuring release of pNA at 30 uM after 48 hrs by spectrophotometry; type: cell-based
# [19] = system: U2OS; assay: Induction of apoptosis in human U2OS cells after 48 hrs by MTT assay in presence of ROS scavenger NAC; type: functional, cell-based
# [20] = system: U2OS; assay: Induction of DNA damage in human U2OS cells by comet assay; type: functional, cell-based
# [21] = system: MCF7; assay: Cytotoxicity against human MCF7 cells after 48 hrs by MTT assay; type: functional, cell-based; conditions: MCF7, 48 h
# [22] = Induction of death receptor signaling-mediated apoptosis in human U2OS cells assessed as increase in FasL level at 30 uM after 12 to 48 hrs by Western blotting method; type: cell-based
# [23] = system: U2OS; assay: Cytotoxicity against human U2OS cells assessed as growth inhibition after 48 hrs by MTT assay relative to control; type: functional, cell-based
# [24] = system: U2OS; assay: Induction of apoptosis in human U2OS cells assessed as cell rounding at 30 uM after 48 hrs by phase-contrast microscopic analysis; type: functional, cell-based
# [25] = system: HL-60; assay: Cytotoxicity against human HL60 cells after 48 hrs by MTT assay; type: functional, cell-based; conditions: HL-60, 48 h
# [26] = Induction of death receptor signaling-mediated apoptosis in human U2OS cells assessed as increase in caspase-9 level at 30 uM after 12 to 48 hrs by Western blotting; type: cell-based
# [27] = Induction of death receptor signaling-mediated apoptosis in human U2OS cells assessed as decrease in mitochondrial membrane potential at 30 uM after 2 to 12 hrs relative to control; type: cell-based; conditions: TDE = time-dependent effect
# [28] = Induction of death receptor signaling-mediated apoptosis in human U2OS cells assessed as increase in Fas expression at 30 uM after 12 hrs using FasL-FITC mAb by flow cytometry (Rvb= 2.01+/-0.74 %); type: cell-based
# [29] = Cytotoxicity against human FOB cells assessed as reduction in cell number after 48 hrs by MTT assay relative to control; type: cell-based
# [30] = system: U2OS; assay: Cytotoxicity against human U2OS cells after 48 hrs by MTT assay; type: functional, cell-based
# [31] = Induction of death receptor signaling-mediated apoptosis in human U2OS cells assessed as increase in Bax level at 30 uM after 12 to 48 hrs by Western blotting; type: cell-based
# [32] = Induction of death receptor signaling-mediated apoptosis in human U2OS cells assessed as increase in FADD level at 30 uM after 12 to 48 hrs by Western blotting method; type: cell-based
# [33] = Induction of death receptor signaling-mediated apoptosis in human U2OS cells assessed as decrease in pro-caspase3 level at 30 uM after 12 to 48 hrs by Western blotting method; type: cell-based
# [34] = Induction of death receptor signaling-mediated apoptosis in human U2OS cells assessed as increase in FasL expression at 30 uM after 12 hrs using FasL-FITC mAb by flow cytometry (Rvb= 1.23+/-0.11 %); type: cell-based
# [35] = system: U2OS; assay: Induction of apoptosis in human U2OS cells assessed as cell shrinking at 30 uM after 48 hrs by phase-contrast microscopic analysis; type: functional, cell-based
# [36] = Induction of death receptor signaling-mediated apoptosis in human U2OS cells assessed as decrease in Bcl-2 level at 30 uM after 12 to 48 hrs by Western blotting; type: cell-based
# [37] = Induction of death receptor signaling-mediated apoptosis in human U2OS cells assessed as decrease in cell viability at 30 uM after 48 hrs by MTT assay in presence of caspase-3 inhibitor […]; type: cell-based
# [38] = Induction of death receptor signaling-mediated apoptosis in human U2OS cells assessed as decrease in cell viability at 30 uM after 48 hrs by MTT assay in presence of caspase-8 inhibitor Z-IETD-FMK; type: cell-based
smiles,measurement,setting,value
COc1cccc(Nc2nc(-c3cccc(F)c3)nc3ccc(F)cc23)c1,Activity,[1],Active
same,Activity,[2],Active
same,Activity,[3],inactive
same,Activity,[4],Active
same,Activity,[5],Active
same,IC50,[6],44.7 µM
same,Activity,[7],Active
same,IC50,[8],47.1 µM
same,IC50,[9],39.6 µM
same,Activity,[10],Active
same,Activity,[11],Active
same,Activity,[12],Active
same,Activity,[13],tde
same,Activity,[14],Active
same,IC50,[15],40.4 µM
same,Activity,[16],inactive
same,Activity,[17],inactive
same,Activity,[18],Active
same,Activity,[19],inactive
same,Activity,[20],Dose-dependent effect
same,IC50,[21],46.3 µM
same,Activity,[22],Active
same,growth inhibition (GI),[23],Dose-dependent effect
same,Activity,[24],Active
same,IC50,[25],35.5 µM
same,Activity,[26],Active
same,Activity,[27],tde
same,Activity,[28],76.2%
same,Activity,[29],Non-toxic
same,IC50,[30],30.3 µM
same,Activity,[31],Active
same,Activity,[32],Active
same,Activity,[33],Active
same,Activity,[34],76.2%
same,Activity,[35],Active
same,Activity,[36],Active
same,Activity,[37],inactive
same,Activity,[38],inactive
